This is an account of results in ChEMBL document CHEMBL4842342, “Amidoxime prodrugs convert to potent cell-active multimodal inhibitors of the dengue virus protease” (Eur J Med Chem, 2021).

One series has as its target Genome polyprotein (dengue virus type 2, UniProt P29990). Put plainly: Inhibition of DENV2 NS2B-NS3 protease. The following applies: for pIC50: read-out: IC50.
Series [1] has as its system dengue virus type 2. The series can be described thus: Antiviral activity against Dengue virus 2 measured at 48 hrs post-infection. The series is classed as functional, organism-based. The following applies: Dengue virus, 48 h; read-out: EC50.
The test system of series [2] is dengue virus type 2. Put plainly: Antiviral activity against Dengue virus 2 EDEN2 infected in human Huh-7 cells. Format: functional, organism-based. The following applies: EDEN2, Huh-7.
Series [3] can be described thus: Cytotoxicity against human Huh-7 cells assessed as reduction in cell viability. The series is classed as cell-based.
Series [4] deals with dengue virus type 2. The series can be described thus: Antiviral activity against DENV2 D2Y10 virus infected in human PBMC cells in presence of 4G2 antibody. The series is classed as functional, organism-based.
A short description of series [5]: Cytotoxicity against human PBMC assessed as reduction in cell viability.

Molecules are shown by their SMILES. pEC50, pIC50: −log10 of the molar value.

Sequence of Genome polyprotein (P29990 1346-1475 limits assumed): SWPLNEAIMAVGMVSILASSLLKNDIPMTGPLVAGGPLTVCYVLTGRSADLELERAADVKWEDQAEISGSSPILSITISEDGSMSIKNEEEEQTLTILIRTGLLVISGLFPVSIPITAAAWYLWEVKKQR
Sequence of Genome polyprotein (P29990 1476-2093 limits assumed): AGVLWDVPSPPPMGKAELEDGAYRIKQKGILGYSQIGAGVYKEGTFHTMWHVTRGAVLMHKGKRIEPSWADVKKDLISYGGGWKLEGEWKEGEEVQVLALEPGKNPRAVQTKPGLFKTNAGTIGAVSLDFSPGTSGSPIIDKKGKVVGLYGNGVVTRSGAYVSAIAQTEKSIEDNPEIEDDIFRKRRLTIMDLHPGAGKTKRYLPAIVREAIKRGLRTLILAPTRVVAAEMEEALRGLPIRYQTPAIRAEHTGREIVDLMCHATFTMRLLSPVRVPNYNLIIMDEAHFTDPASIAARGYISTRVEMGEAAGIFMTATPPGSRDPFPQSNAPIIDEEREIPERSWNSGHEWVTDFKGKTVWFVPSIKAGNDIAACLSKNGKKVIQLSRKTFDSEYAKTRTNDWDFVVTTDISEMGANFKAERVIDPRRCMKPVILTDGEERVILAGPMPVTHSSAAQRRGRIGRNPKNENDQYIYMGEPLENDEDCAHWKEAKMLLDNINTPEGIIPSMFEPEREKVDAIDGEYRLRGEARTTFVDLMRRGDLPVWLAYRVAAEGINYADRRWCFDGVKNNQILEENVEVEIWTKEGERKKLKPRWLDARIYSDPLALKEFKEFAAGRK

The term pEC50 denotes the negative decadic logarithm of the EC50, by convention in mol/L. With `N/C(=N\O)c1cccc(-c2ccc3c(c2)c2cc(-c4cccc(/C(N)=N/O)c4)ccc2n3S(=O)(=O)c2cccc(C(F)(F)F)c2)c1`, on Genome polyprotein, the IC50 result is “Not Active”. Besides, the negative logarithm of the EC50 (pEC50) in the series with dengue virus type 2 [1] is 5.30.

In general, pIC50 refers to −log10 of the IC50, conventionally taken in molar units. Regarding `N=C(N)c1cccc(-c2ccc3c(c2)c2cc(-c4cccc(C(=N)N)c4)ccc2n3S(=O)(=O)c2ccccc2Br)c1`, the pIC50 on Genome polyprotein is 5.06. Further, in the series on dengue virus type 2 [1], the negative logarithm of the EC50 (pEC50) is 5.16. As to `N/C(=N\O)c1cccc(-c2ccc3c(c2)c2cc(-c4cccc(/C(N)=N/O)c4)ccc2n3S(=O)(=O)c2ccccc2Br)c1`, at Genome polyprotein, the IC50 result was “Not Active”. Also, the negative-log EC50 (pEC50) in the series on dengue virus type 2 [1] is 5.12. The term CC50 denotes the concentration at which the toxic effect on the cells reaches its halfway point. For the molecule `N=C(N)c1cccc(-c2ccc3c(c2)c2cc(-c4cccc(C(=N)N)c4)ccc2n3Cc2cccc(Br)c2)c1`, the results for the pEC50 in the series on dengue virus type 2 [2] and in the series on dengue virus type 2 [4] were 4.78 and 4.32, respectively. For the same molecule, the CC50 in series [3] was 100 µM; in series [5], > 100 µM.

As to `COc1ccc(S(=O)(=O)n2c3ccc(-c4cccc(/C(N)=N/O)c4)cc3c3cc(-c4cccc(/C(N)=N/O)c4)ccc32)cc1`, the IC50 result at Genome polyprotein is reported as “Not Active”. In addition, the pEC50 with dengue virus type 2 [1] was 5.02. `COc1cccc(Cn2c3ccc(-c4cccc(-c5noc(=O)[nH]5)c4)cc3c3cc(-c4cccc(-c5noc(=O)[nH]5)c4)ccc32)c1`: the pIC50 on Genome polyprotein is 3.92. The negative-log EC50 (pEC50) in the series with dengue virus type 2 [1] is 4.84.

For `N/C(=N\O)c1cccc(-c2ccc3c(c2)c2cc(-c4cccc(/C(N)=N/O)c4)ccc2n3S(=O)(=O)c2ccccc2OC(F)(F)F)c1`, the IC50 result at Genome polyprotein is “Not Active”. For the same molecule, the pEC50 in the series with dengue virus type 2 [1] is 5.72. For `COc1cccc(Cn2c3ccc(-c4cccc(C(=N)N)c4)cc3c3cc(-c4cccc(C(=N)N)c4)ccc32)c1`, the pIC50 on Genome polyprotein was 5.57. For the same molecule, the negative-log EC50 (pEC50) with dengue virus type 2 [1] was 5.18. For `COc1cccc(S(=O)(=O)n2c3ccc(-c4cccc(C(=N)N)c4)cc3c3cc(-c4cccc(C(=N)N)c4)ccc32)c1` the same measures were 5.35 and 4.58. Consider `N=C(N)c1cccc(-c2ccc3c(c2)c2cc(-c4cccc(C(=N)N)c4)ccc2n3S(=O)(=O)c2cccc(OC(F)(F)F)c2)c1`, for which the pIC50 on Genome polyprotein was 5.51. Besides, the negative-log EC50 (pEC50) in the series with dengue virus type 2 [1] is 5.09. Consider `N/C(=N\O)c1cccc(-c2ccc3c(c2)c2cc(-c4cccc(/C(N)=N/O)c4)ccc2n3S(=O)(=O)c2cccc(OC(F)(F)F)c2)c1`, for which the IC50 entry at Genome polyprotein is reported as “Not Active”. The pEC50 in the series with dengue virus type 2 [1] is 5.11. Take `COc1ccc(S(=O)(=O)n2c3ccc(-c4cccc(C(=N)N)c4)cc3c3cc(-c4cccc(C(=N)N)c4)ccc32)cc1`: the negative logarithm of the IC50 (pIC50) at Genome polyprotein is 5.18. Also, in the series with dengue virus type 2 [1], the pEC50 is 5.02. As to `N/C(=N\O)c1cccc(-c2ccc3c(c2)c2cc(-c4cccc(/C(N)=N/O)c4)ccc2n3S(=O)(=O)c2ccccc2C(F)(F)F)c1`, in the series with dengue virus type 2 [1], the pEC50 was 5.28. For `N=C(N)c1cccc(-c2ccc3c(c2)c2cc(-c4cccc(C(=N)N)c4)ccc2n3S(=O)(=O)c2ccccc2OC(F)(F)F)c1`, the negative logarithm of the IC50 (pIC50) on Genome polyprotein was 5.01. For the same molecule, the pEC50 with dengue virus type 2 [1] was 5.25. With `N/C(=N\O)c1cccc(-c2ccc3c(c2)c2cc(-c4cccc(/C(N)=N/O)c4)ccc2n3S(=O)(=O)c2cccc3cccnc23)c1`, in the series with dengue virus type 2 [1], the pEC50 was 5.07. For the molecule `N=C(N)c1cccc(-c2ccc3c(c2)c2cc(-c4cccc(C(=N)N)c4)ccc2n3S(=O)(=O)c2cccc(C(F)(F)F)c2)c1`, the pIC50 at Genome polyprotein is 5.54. In the series on dengue virus type 2 [1], the negative logarithm of the EC50 (pEC50) was 5.14.

In the case of `N/C(=N\O)c1cccc(-c2ccc3c(c2)c2cc(-c4cccc(/C(N)=N/O)c4)ccc2n3S(=O)(=O)c2ccc(C(F)(F)F)cc2)c1`, in the series on dengue virus type 2 [1], the pEC50 was 5.31. On to `N/C(=N\O)c1cccc(-c2ccc3c(c2)c2cc(-c4cccc(/C(N)=N/O)c4)ccc2n3Cc2ccc3c(c2)OCO3)c1`, for which, in the series on dengue virus type 2 [1], the negative logarithm of the EC50 (pEC50) is 5.30. Take `N/C(=N\O)c1cccc(-c2ccc3c(c2)c2cc(-c4cccc(/C(N)=N/O)c4)ccc2n3S(=O)(=O)c2ccc(Br)c(F)c2)c1`: in the series on dengue virus type 2 [1], the negative-log EC50 (pEC50) is 5.11.
